Experimental data reported in US20050239205A1, “Gb virus b based replicons and replicon enhanced cells” (priority 2002, published 2005).

Legend:
GBV-B replicon = experiment: Effect of test compound on GBV-B replicon RNA in B76.1/Huh7 cells (TaqMan, neo primer set); format: cell-based
Method: (§1) Huh7 cell clones carrying GBV-B or HCV replicons were used to test the effect of human interferon alpha-2b. Cells (1×10^5) were plated into each well of a series of wells of Multiwell-6-wells plates (falcon cat N. 35-3046) in medium without G418. After 16 hours the medium was discarded and increasing concentrations of the test compound in fresh medium were added to each series of wells. Controls were run using the specific compound solvent at the appropriate dilution.
[…] Total RNA was purified as described in the TRizol protocol (Life Technologies). Ten out of 100 μl of total RNA were used in each reaction.
(§2) Taq Man analysis was performed using a neomycin primer set (taq NEO 1, GATGGATTGCACGCAGGTT (SEQ. ID. NO. 17), and taq NEO 5, […] (SEQ. ID. NO. 18)) and a NEO probe (1,6-carboxyfluorescein-TCCGGCCGCTTGGGT GGAG (SEQ. ID. NO. 19)-N,N,N′,N′-tetramethyl-6-carboxyrhodamine). Human GAPDH mRNA quantified with a specific primer set (PE Applied Biosystems) was used as an endogenous reference. GBV-B RNA extracted from mock-treated cells was used as a calibrator. Results from two independent experiments were analyzed using both the Comparative Ct Method and the standard curve method.
Experiments were performed using 10^5 cells of B76.1/Huh7 and 10A plated into individual wells of 6-multiwell plate and incubated overnight in the absence of G418. […]

[1] = test system: GBV-B full-length genomic FL3 RNA; experiment: Replication of full-length GBV-B FL3 RNA transfected in cB76.1/Huh7 enhanced cells (Taqman); format: cell-based
Source text: GBV-B RNA was quantified by a real-time 5′ exonuclease PCR (TaqMan) assay using a primer/probe set that recognized a portion of the GBV-B 5′UTR. The primers (GBV-B-F3, GTAGGCGGCGGGACTCAT (SEQ. ID. NO. 14), and GBV-B-R3, TCAGGGCCATCCAAGTCAA (SEQ. ID NO. 15)) and probe (GBV-B-P3,6-carboxyfluorescein-[…] (SEQ. ID. NO. 16)-N,N,N′,N′-tetramethyl-6-carboxyrhodamine) were selected using the Primer Express software (PE Applied Biosystems). The fluorescent probe was obtained from PE Applied Biosystems. The primers were used at 10 pmol/50 μl reaction, and the probe was used at 5 pmol/50 μl reaction.
PCR was were performed using a TaqMan Gold RT-PCR kit (PE Applied Biosystems). […]
RNA transcribed from a plasmid containing the first 2000 nucleotides of the GBV-B genome was used as a standard to establish genome equivalents. […] RNA was quantified by absorbance at 260 nm and stored at −80° C.
All reactions were run in duplicate by using the ABI Prism 7700 Sequence Detection System (PE Applied Biosystems). […] Results from two independent experiments were analyzed using both the Comparative Ct Method and the standard curve method.
GBV-B full-length genomic FL3 RNA (EMBL accession number AJ277947) was transfected in Huh7 and in enhanced cells cB76.1/Huh7 in parallel with the corresponding GAA control. Intracellular GBV-B RNA was measured by Taqman in a time-course experiment.

RepB replication = experiment: beta-lactamase stain of bla-RepB transfected cB76.1/Huh7 cells; format: cell-based, GBV-B
Method: Immediately after electric pulses cells were diluted in 8 ml complete Dulbecco's Modified Eagle Medium (DMEM) and processed with different protocols depending on the selection/tracer used. In the case of neo-constructs transformation, cells were divided in 3 plates of 15 cm diameter and on the following day the selecting antibiotic G418 (Sigma G-9516) was added at a concentration of 0.250, 0.5 or 1 mg/ml. […] Surviving clones were picked-up and expanded by growing them in individual plates. When a bla reporter gene was used, 1.5 ml, 1.0 ml and 0.5 ml of transfected cells suspension were plated in each well of Multiwell-6-wells plate (Falcon cat. N. 35-3046) to be stained respectively at 24, 48 and 72 hours.
Aurora substrate system “CCF4” was used to measure β-lactamase activity. When quantitative PCR was used to measure transient replication, cells were plated 1-2×10^5/well in “6-multi-well plate”. After 3 days total RNA was purified as described in the TRIzol protocol (Life Technologies) and 10 out of 100 μl of total RNA were used in individual TaqMan reactions.
The increased efficiency of replication of RepB RNA in cB76.1/Huh7 cells compared to wild type Huh7 cells was also monitored using a colorimetric assay after transfection of RNA transcribed from bla-RepB plasmid. The bla-RepB plasmid expresses a […] marker in place of the selector neomycin phosphotransferase. […]

GBV-B virus = experiment: Infection of enhanced cells with GBV-B virus-containing serum by electroporation (Taqman); format: cell-based
Method: GBV-B virus inoculum produced upon passage of virus in tamarins was used to infect Huh7 and cB76.1/Huh7 enhanced cells. GBV-B containing tamarin serum was layered onto 10^5 cells in multiwell-6-wells 1 day after plating at multiplicity of infection of 0.75 G.E./cell. After 6 hours adsorption, the virus-containing serum was removed, the cells extensively washed and incubated in the serum-free DMEM. Cells from individual wells were lyzed with Trizol at different times and GBV-B RNA quantified by Taqman.
As an alternative method, 10^6 cells were mixed with undiluted virus-containing serum (10^6 G.E.) and subjected to electroporation. The cells were plated at a density of 10^5/well and treated as described for experiments of RNA electroporation. Duplicate wells were run in parallel, with and without interferon. Cells from individual wells were lyzed with Trizol at different times and GBV-B RNA quantified by Taqman. The amount of G.E. detectable immediately after electroporation and wash was 10^3 G.E., it was undetectable at 24 and 48 hours, at day 3 it was 10^4 G.E.; at day 6 it was 5×10^3 (possibly inhibition due to cell density); in corresponding wells treated with interferon the RNA was undetectable. […] RNA was quantified at day 13 and 16 giving a figure corresponding to 4×10^3 G.E. and 1.2×10^4 G.E. respectively. […]

HCV replicon = experiment: Effect of test compound on HCV replicon RNA in 10A Huh7 cells (TaqMan, neo primer set); format: cell-based; settings: 10A cells (HCV replicon in Huh7), up to 3 days, replicon RNA normalized to GAPDH
Method: as §1
Cells were grown up to 3 days in the presence of compounds or compound solvent without a compound, avoiding cell confluence, and finally lysed with TRIzol. Total RNA was purified as described in the TRizol protocol (Life Technologies). Ten out of 100 μl of total RNA were used in each reaction.
as §2, with “method. […]” for “method.”

human interferon alpha-2b [Human alpha-IFN]
Replicon RNA after curing treatment (GBV-B replicon; B76.1/Huh7, 100 U/ml for 15 days in the absence of neomycin, TaqMan at end of treatment): disappearance of the selectable RNA replicon molecules | IC50 on GBV-B replicon (GBV-B replicon; B76.1/Huh7 cells, up to 3 days, replicon RNA normalized to GAPDH): 0.45 U/ml | Decrease of FL3 RNA amount ([1]; cB76.1/Huh7 transfected with FL3, day 6): 10-20 fold | Effect on GAA mutant RNA amount ([1]; cB76.1/Huh7 transfected with mutant GAA construct, day 6): did not affect | Number of blue cells (RepB replication): reduced the number of blue cells to background levels | GBV-B RNA in cells cultivated in the presence of IFN (GBV-B virus; after splits, points up to day 16): background signals | GBV-B RNA in treated wells (GBV-B virus; day 3 and day 6 after electroporation with virus-containing serum): undetectable | IC50 on HCV replicon (HCV replicon): 0.58 U/ml
